Several values for one entry are separate records, joined by “and”; a condition that tells them apart may be missing. Identical values can stand only once. Results filed as inconclusive are left out.
Tested on: BDF1 mice, colon carcinoma 38 sc, T/C %
Assay: NCI In Vivo Anticancer Drug Screen. Data for tumor model Colon Carcinoma 38 (subcutaneous) in B6D2F1 (BDF1) mice
Conditions: endpoint: median tumor weight (est.), higher = larger tumour
How it was run: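 T/C readout: treated group (T) measurement over vehicle control group (C) measurement. Endpoint is survival or tumor size in mice bearing a transplanted tumor.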

[1] = dose: 1.5 mg/kg/injection, schedule: Q07DX002 (ip), vehicle: saline
[2] = dose: 1.56 mg/kg/injection, schedule: Q07DX002 (ip), vehicle: saline
[3] = dose: 3.0 mg/kg/injection, schedule: Q07DX002 (ip), vehicle: saline
[4] = dose: 6.0 mg/kg/injection, schedule: Q07DX002 (ip), vehicle: saline
[5] = dose: 12.5 mg/kg/injection, schedule: Q07DX002 (ip), vehicle: saline
[6] = dose: 25.0 mg/kg/injection, schedule: Q07DX002 (ip), vehicle: saline
[7] = dose: 50.0 mg/kg/injection, schedule: Q07DX002 (ip), vehicle: saline

## COc1cc2c(c(OC)c1OC)-c1ccc(OC)c(=O)cc1[C@@H](NC(C)=O)CC2
dose: 0.12 mg/kg/injection, schedule: Q07DX002 (ip), vehicle: saline
  T/C: 105 % of control
dose: 0.25 mg/kg/injection, schedule: Q07DX002 (ip), vehicle: saline
  T/C: 121 % of control
dose: 0.37 mg/kg/injection, schedule: Q07DX002 (ip), vehicle: saline
  T/C: 119 % of control
dose: 0.75 mg/kg/injection, schedule: Q07DX002 (ip), vehicle: saline
  T/C: 69 % of control
dose: 1.0 mg/kg/injection, schedule: Q07DX002 (ip), vehicle: saline
  T/C: 159 % of control
[1]
  T/C: 87 % of control
[2]
  T/C: 95 % of control
[3]
  T/C: 87 % of control
dose: 4.0 mg/kg/injection, schedule: Q07DX002 (ip), vehicle: saline
  T/C: 111 % of control
[4]
  T/C: 5 % of control

## C#CCNC1=C(C)C(=O)C2=C(C1=O)[C@H](COC(N)=O)[C@]1(OC)[C@@H]3N[C@@H]3CN21
dose: 1.5 mg/kg/injection, schedule: Q07DX002 (ip), vehicle: distilled water + Tween-80
  T/C: 49 % of control
dose: 3.0 mg/kg/injection, schedule: Q07DX002 (ip), vehicle: distilled water + Tween-80
  T/C: 78 % of control
dose: 6.0 mg/kg/injection, schedule: Q07DX002 (ip), vehicle: distilled water + Tween-80
  T/C: 20 % of control

## COc1cccc(-c2cc(=O)c3cccc(CC(=O)O)c3o2)c1
[5]
  T/C: 88 % of control
[6]
  T/C: 97 % of control
[7]
  T/C: 110 % of control
dose: 100.0 mg/kg/injection, schedule: Q07DX002 (ip), vehicle: saline
  T/C: 33 % of control

## C[C@]12CC[C@H]3[C@@H](CCC4=C[C@@H](OC5OCC(OC6OC(CO)C(O)C(O)C6O)C(O)C5O)CC[C@@]43C=O)[C@@]1(O)CCC2C1=CC(=O)OC1 (stereo partly drawn)
dose: 0.31 mg/kg/injection, schedule: Q07DX003 (ip), vehicle: Klucel (hydroxypropylcellulose) (HPC)
  T/C: 106 % of control
dose: 1.25 mg/kg/injection, schedule: Q07DX003 (ip), vehicle: Klucel (hydroxypropylcellulose) (HPC)
  T/C: 53 % of control
dose: 2.5 mg/kg/injection, schedule: Q07DX003 (ip), vehicle: Klucel (hydroxypropylcellulose) (HPC)
  T/C: 102 % of control
dose: 5.0 mg/kg/injection, schedule: Q07DX003 (ip), vehicle: Klucel (hydroxypropylcellulose) (HPC)
  T/C: 105 % of control
dose: 10.0 mg/kg/injection, schedule: Q07DX003 (ip), vehicle: Klucel (hydroxypropylcellulose) (HPC)
  T/C: 95 % of control

## Nc1n[n+](-c2ccc(Cl)cc2)no1
dose: 6.25 mg/kg/injection, schedule: Q07DX002 (ip), vehicle: water
  T/C: 64 % of control and 78 % of control
dose: 12.5 mg/kg/injection, schedule: Q07DX002 (ip), vehicle: water
  T/C: 85 % of control and 87 % of control
dose: 25.0 mg/kg/injection, schedule: Q07DX002 (ip), vehicle: water
  T/C: 57 % of control
dose: 50.0 mg/kg/injection, schedule: Q07DX002 (ip), vehicle: water
  T/C: 119 % of control

## CC(CN1CC(=O)NC(=O)C1)N1CC(=O)NC(=O)C1 (stereo not drawn)
dose: 25.0 mg/kg/injection, schedule: Q07DX003 (ip), vehicle: Klucel (hydroxypropylcellulose) (HPC)
  T/C: 84 % of control and 89 % of control
dose: 50.0 mg/kg/injection, schedule: Q07DX003 (ip), vehicle: Klucel (hydroxypropylcellulose) (HPC)
  T/C: 73 % of control and 85 % of control
dose: 200.0 mg/kg/injection, schedule: Q07DX003 (ip), vehicle: Klucel (hydroxypropylcellulose) (HPC)
  T/C: 51 % of control and 54 % of control
dose: 400.0 mg/kg/injection, schedule: Q07DX003 (ip), vehicle: Klucel (hydroxypropylcellulose) (HPC)
  T/C: 9 % of control and 15 % of control

## CC1(C)N=C(N)N=C(N)N1c1ccc(F)c(C(F)(F)F)c1
[2]
  T/C: 87 % of control
dose: 6.25 mg/kg/injection, schedule: Q07DX002 (ip), vehicle: saline
  T/C: 81 % of control and 84 % of control
[5]
  T/C: 50 % of control and 64 % of control
dose: 12.5 mg/kg/injection, schedule: Q07DX003 (ip), vehicle: suspension in saline
  T/C: 169 % of control
[6]
  T/C: 79 % of control and 91 % of control
dose: 25.0 mg/kg/injection, schedule: Q07DX003 (ip), vehicle: suspension in saline
  T/C: 161 % of control
[7]
  T/C: 40 % of control and 60 % of control
dose: 50.0 mg/kg/injection, schedule: Q07DX003 (ip), vehicle: suspension in saline
  T/C: 95 % of control
dose: 100.0 mg/kg/injection, schedule: Q07DX003 (ip), vehicle: suspension in saline
  T/C: 104 % of control

## C1CCC2[N-]CC3CCCCC3[N-]CC3CCCCC3[N-]CC3CCCCC3[N-]CC2C1.[Cu] (stereo not drawn)
dose: 1.56 mg/kg/injection, schedule: Q07DX002 (ip), vehicle: Klucel (hydroxypropylcellulose) (HPC)
  T/C: 93 % of control
dose: 1.56 mg/kg/injection, schedule: Q07DX003 (ip), vehicle: Klucel (hydroxypropylcellulose) (HPC)
  T/C: 97 % of control
dose: 3.13 mg/kg/injection, schedule: Q07DX002 (ip), vehicle: Klucel (hydroxypropylcellulose) (HPC)
  T/C: 81 % of control
dose: 6.25 mg/kg/injection, schedule: Q07DX002 (ip), vehicle: Klucel (hydroxypropylcellulose) (HPC)
  T/C: 91 % of control
dose: 6.25 mg/kg/injection, schedule: Q07DX003 (ip), vehicle: Klucel (hydroxypropylcellulose) (HPC)
  T/C: 100 % of control
dose: 12.5 mg/kg/injection, schedule: Q07DX002 (ip), vehicle: Klucel (hydroxypropylcellulose) (HPC)
  T/C: 97 % of control
dose: 12.5 mg/kg/injection, schedule: Q07DX003 (ip), vehicle: Klucel (hydroxypropylcellulose) (HPC)
  T/C: 95 % of control

## CC(=O)C(=O)O.CC(=O)C(=O)O.[NH-]C1CCCCC1[NH-].[Pt+2] (stereo not drawn)
dose: 25.0 mg/kg/injection, schedule: Q07DX002 (ip), vehicle: dextrose
  T/C: 96 % of control
dose: 50.0 mg/kg/injection, schedule: Q07DX002 (ip), vehicle: dextrose
  T/C: 44 % of control

## COC(=O)C12OCC34C(CC5C(C)C6=CC(=O)OC6=CC5(C)C3C(O)C1O)OC(=O)C(OC(C)=O)C24 (stereo not drawn)
dose: 0.25 mg/kg/injection, schedule: Q07DX002 (ip), vehicle: saline + alcohol
  T/C: 86 % of control
dose: 0.5 mg/kg/injection, schedule: Q07DX002 (ip), vehicle: saline + alcohol
  T/C: 65 % of control
dose: 1.0 mg/kg/injection, schedule: Q07DX002 (ip), vehicle: saline + alcohol
  T/C: 96 % of control
dose: 2.0 mg/kg/injection, schedule: Q07DX002 (ip), vehicle: saline + alcohol
  T/C: 105 % of control
dose: 4.0 mg/kg/injection, schedule: Q07DX002 (ip), vehicle: saline + alcohol
  T/C: 114 % of control

## CS(=O)(=O)CS(=O)(=O)OCCCl
[1]
  T/C: 86 % of control
[3]
  T/C: 91 % of control
[4]
  T/C: 97 % of control
dose: 12.0 mg/kg/injection, schedule: Q07DX002 (ip), vehicle: saline
  T/C: 155 % of control
dose: 25.0 mg/kg/injection, schedule: Q07DX002 (ip), vehicle: saline with Tween-80
  T/C: 73 % of control

Reference: PubChem BioAssay AID212 (DTP/NCI, 2004)
